Here are results for 88 molecules from a melting point compilation (Tetko et al.; mined from patent text by program, amines drawn as free bases though some values may be those of a salt).

Broadly, the melting point is the temperature of the solid-liquid transition. In turn, `CC(C)(C)OC(=O)c1ccc(NC2CCc3cc4nc(COCc5ccccc5)[nH]c(=O)c4cc32)cc1` (racemic) had a melting point of 194 to 195 °C.

Consider `Fc1ccc(C2=CCC(N3CCN(Cc4ccc5ccccc5n4)CC3)CC2)cc1` (stereo not drawn), for which the melting point was in the range of 111 to 114 °C.

On to `C=CCN/C(=C1/Sc2ccccc2C1=O)c1ccccc1`, for which the melting point fell in the range of 104 to 106 °C.

Molecule `CCC(=O)Oc1cc(OC)cc(OC)c1C(=O)C=Cc1ccc(OC)cc1` came in with a melting point of 117 to 118 °C.

Turning to `O=C(O)COc1ccc2c(=O)c3cccc(Cl)c3oc2c1Cl`, the melting point lay within 283 to 286 °C.

The molecule `COc1ccc(F)cc1C1CC(=O)CC(=O)C1` returned a melting point of 160 to 161 °C.

As for `CCCOCc1cc2cc(-c3ccc4c(c3)C=C(C(=O)Nc3ccc(CN(C)C5CCOCC5)cc3)CCS4(=O)=O)ccc2o1`, the melting point is 204 to 206 °C.

In turn, `CN(C)c1ccc(C=C2C(=O)NC(=S)NC2=O)cc1` yielded a melting point of 272 °C.

`COc1cc(Nc2nc3c(s2)CCCC3c2ccccc2)ccc1C(=O)NN` (stereo not drawn) had a melting point of 297 to 299 °C.

Molecule `Cc1cc(C)cc(NC(=O)Cc2ccc(OC(C)(C)C(=O)O)cc2)c1` showed a melting point of 85 °C.

As to `COC(=O)c1cc2c(nc1C(=O)OC)N(C)CC2`, the melting point was 132 to 133 °C.

`CCC(=O)c1c(CC)n(Cc2ccccc2Cl)c2cc(-c3nnn[nH]3)ccc12` displayed a melting point of 178 to 181 °C.

In the case of `O=C(O)Cc1cc(Cl)cc2c(-c3ccccc3)onc12`, the melting point lay within 188 to 190 °C.

For the molecule `COc1ccc(-c2[nH]c3ncnc(Nc4cccc(Cl)c4)c3c2C)cc1`, the melting point was in the range of 265 to 268 °C.

As for `O=C(Nc1ccc(N2C[C@H]3CN(C(=O)OCc4ccccc4)C[C@H]3C2)cc1)OCc1ccccc1`, the melting point fell in the range of 145 to 146 °C.

Molecule `COc1cc(C=O)cc(OC)c1NC=O` had a melting point of 159 to 160 °C.

`COc1ccc(C2C(=O)NC(C)(C(C)C)C2=O)c(Cl)c1` (stereo not drawn) registered a melting point of 130 to 140 °C.

`COc1ccc(C(=O)O)cc1C#CCN(C)C` registered a melting point of 167 to 170 °C.

In the case of `COC(=O)NC(CCc1ccc(Cl)cc1)C(=O)O` (stereo not drawn), the melting point lay in the range of 113 to 114 °C.

Regarding `COC(=O)c1ccc(-c2ccc3cc(C(=O)OCc4ccccc4)c(C45CC6CC(CC(C6)C4)C5)cc3c2)cc1`, the melting point lay in the range of 143 to 144 °C.

In the case of `CCn1c2ccccc2c2cc(NC(=O)c3c(C)cccc3C)ccc21`, the melting point was 192 to 193 °C.

Molecule `CCOC(=O)Cc1ccc(NC(=O)C(CCO)NS(=O)(=O)c2ccc(Cl)cc2)cc1` (racemic) yielded a melting point of 164 to 167 °C.

On to `CN1CCNC1=Nc1ccccc1N1CCOCC1`, for which the melting point stood at 156 °C.

As for `COc1cc2c3ccc(OC)c(OC)c3n(Cc3c(Cl)cccc3Cl)c2cc1OC`, the melting point lay in the range of 207 to 210 °C.

With `c1cncc(CNC2=Nc3ccccc3Nc3ncccc32)c1`, the melting point was 192 to 194 °C.

In turn, `CN(CCCc1ccc(F)cc1)[C@H]1CC[C@H](c2ccc3[nH]c(=O)oc3c2)CC1` had a melting point of 62 to 65 °C.

`Cn1cc(CC(=O)O)c(OCc2ccc(OCc3csc(-c4ccccc4)n3)nc2)n1` showed a melting point of 156 to 157 °C.

Turning to `CON=c1cc(C)c2ccccc2[nH]c1=O`, the melting point is 190 to 193 °C.

`Cc1cc(Cl)ccc1OCC(=O)N1Cc2ccc(C(=O)CCc3ccccc3)n2Cc2ccccc21` registered a melting point of 130 to 134 °C.

`O=c1c(-c2ccccc2)c(SCc2ccccc2)oc2cc(O)ccc12` gave a melting point of 215 to 217 °C.

In turn, `O=C(O)C1=Nc2ccc3c(c2=C1)=CCO3` returned a melting point of 183 to 184 °C.

For the molecule `Cc1ccc(-c2cc([Si](C)(C)C)oc2-c2ccc(Cl)cc2)cc1`, the melting point was in the range of 80 to 84 °C.

In turn, `CCc1cc2c(s1)SCc1cc(=O)n(-c3ccc(Cl)cc3)nc1-2` returned a melting point of 161 to 163 °C.

In turn, `O=C1NC2COc3cc4c(cc3C2c2ccsc21)OCO4` (stereo not drawn) displayed a melting point of more than 250 °C.

For the molecule `CC(=O)Oc1cccc2c1C13CCN(C)C(C2)C1CCC(=O)C3` (single isomer, unassigned; (-)), the melting point lay in the range of 96 to 97 °C.

Regarding `COC1CCC2C3CCC4CC(=O)C(C)(C)CC4(C)C3CCC12C` (stereo not drawn), the melting point lay within 116 to 120 °C.

For the molecule `CCCCOC(=O)c1ccc(N2CCN(C)CC2)cc1`, the melting point was 118 to 120 °C.

The molecule `O=C(O)CON=C(c1ccccc1)c1cc2ccncc2[nH]1` returned a melting point of 68 to 73 °C.

In turn, `COc1c(N2CC3CCC3(NC(=O)OC(C)(C)C)C2)c(F)cc2c(=O)c(C(=O)O)cn(C3CC3)c12` (stereo not drawn) showed a melting point of 211 to 213 °C.

For the molecule `O=C1C(=O)c2ccccc2C2=C1SCC1(CCN(CC(O)COc3ccc4ccccc4c3)CC1)O2` (stereo not drawn), the melting point was in the range of 164 to 167 °C.

Turning to `COc1cc(N)c(Cl)cc1C(=O)OCC12CCCN(CC1)C2` (stereo not drawn), the melting point was in the range of 131 to 133 °C.

`Cc1nc(Br)cnc1N` registered a melting point of 51 to 52 °C.

The molecule `CCCCCCCCCCc1ccc2cc(SC)c(OS(=O)(=O)C(F)(F)F)cc2c1` yielded a melting point of 149 to 150 °C.

As to `O=[N+]([O-])c1ccc2[nH]c(-c3ccccc3)cc2c1`, the melting point is 199 to 200 °C.

The molecule `COc1ccc(C(=O)Nc2ccc(Cl)cc2)cc1NC(=S)Nc1cc(Cl)cc(Cl)c1` returned a melting point of 180 to 185 °C.

Turning to `CC(C(=O)O)C(=O)Nc1cccc(S(=O)(=O)n2c(=O)[nH]c3cc(Cl)ccc3c2=O)c1` (stereo not drawn), the melting point was in the range of 187 to 188 °C.

In turn, `CC(=O)c1cc(-c2ccc(C(C)(C)C)cc2)c2c(c1)C(C)(C)CCC2(C)C` returned a melting point of 134 °C.

The molecule `CCCNC(=O)C(C)Cc1ccc2cccc(Cc3ccc(C(=O)OC)cc3OC)c2c1` (stereo not drawn) displayed a melting point of 130 °C.

The molecule `CC(C)(C)c1ccc(C(O)CCCN2CCC(C3(O)c4ccccc4COc4ccccc43)CC2)cc1` (stereo not drawn) returned a melting point of 135 to 137 °C.

Turning to `O=C(c1ccccc1)n1c2c(c3ccccc31)CC(CO)CC2` (stereo not drawn), the melting point was in the range of 105 to 107 °C.

Molecule `COc1ccc2[nH]c(C(=O)N3CC(CCl)c4c3cc(N)c3ccccc43)cc2c1` (stereo not drawn) displayed a melting point of 250 to 255 °C.

For `CCCc1sc(N)c(C(=O)c2ccc(Cl)cc2)c1C`, the melting point lay within 94 to 95 °C.

Take `CC(=O)Oc1ccc2c(c1)Sc1cc(N(C)C)ccc1N2C(C)=O`: the melting point lay within 124 to 128 °C.

Turning to `O=C(c1ccc(-c2ccccc2)cc1)C1CCN(CCc2c[nH]c3ccccc23)CC1`, the melting point lay in the range of 189 to 192 °C.

In the case of `COC(=O)c1cc(S(C)(=O)=O)c(F)cc1Br`, the melting point stood at 126 °C.

Take `COC(=O)/C(C)=C/COc1cccc(O)c1`: the melting point lay in the range of 79 to 81 °C.

On to `CCCCc1ncc(C=O)n1Cc1ccc(C(=O)OC)cc1`, for which the melting point fell in the range of 62 to 64 °C.

`CCOC(=O)c1ccc2c(c1)N(C(=O)C(C)Br)c1ccccc1C=C2` (stereo not drawn) displayed a melting point of 163 °C.

In turn, `C/C=C(/COC(=O)CNC(=O)C(F)(F)F)c1ccccc1` came in with a melting point of 49 to 50 °C.

For `Cn1cnc(COc2nc3c(cc2C(C)(C)C)nnn3-c2ccccc2F)n1`, the melting point lay in the range of 127 to 129 °C.

The molecule `COc1ccc2nc(COc3ccc4c(c3)C(SCCC(=O)O)c3ccccc3CO4)ccc2c1` (stereo not drawn) came in with a melting point of 174 to 175 °C.

`O=C(O)Cc1cccc(C(=O)c2cc3cc(C(=O)O)sc3s2)c1` had a melting point of 283 °C.

As to `COc1cc2c(c(OC(C)=O)c1)C1CCC3(C)C(OC)CCC3C1CC2` (stereo not drawn), the melting point is 81 to 83 °C.

`CCC(=O)NCC[C@@H]1CCc2ccc3c(c21)CCO3`: the melting point was in the range of 113 to 115 °C.

In turn, `O=C1Cc2ccccc2Sc2cc(F)c(F)cc21` gave a melting point of 110 to 112 °C.

Consider `COc1cc(C2(C)COc3c(OC)cc(C=O)cc32)ccc1O` (stereo not drawn), for which the melting point fell in the range of 162 to 165 °C.

For `CC(C)(C)OC(=O)n1cc(C(=O)C2CSC(c3cccnc3)N2C(=O)C=O)c2ccccc21` (stereo not drawn), the melting point lay within 125 to 130 °C.

Molecule `NC(=O)C1CCN(c2cc(-c3ccccc3)nc3ccc(F)cc23)CC1` had a melting point of 230 to 233 °C.

In the case of `Cc1nc(N2CCN(Cc3ccccc3)S2(=O)=O)sc1C(=O)NCc1cccnc1`, the melting point was 140 to 142 °C.

Regarding `CC12CCC3C(CC=C4CC(O)CCC43C)C1CC=C2Br` (stereo not drawn), the melting point lay in the range of 162 to 164 °C.

Take `CCN(CC)S(=O)(=O)c1ccccc1S(=O)(=O)NC(=O)Nc1nc(C)cc(OC)n1`: the melting point was 170 to 172 °C.

In turn, `CC(C(=O)O)c1ccc(N=c2sccn2C)cc1` (stereo not drawn) registered a melting point of 130 to 132 °C.

For `Cc1nnc2n1-c1sc(Cc3ccccc3)cc1C(c1ccccc1Cl)=NC2`, the melting point is 161 to 163 °C.

`CC(C)c1csc(NC(=O)OC(C)(C)C)c1C(=O)O` registered a melting point of 205 to 206 °C.

Turning to `CCOC(=O)c1cn(CC)c2nc(OC)c(F)cc2c1=O`, the melting point fell in the range of 181 to 182 °C.

In the case of `CCOC(=O)c1ccc(/C=C/C2CCCN2C(=O)OC(C)(C)C)cc1` (stereo not drawn), the melting point fell in the range of 68 to 70 °C.

With `CCOc1nc2c(cc1C)C(=O)c1ccccc1C2=O`, the melting point lay in the range of 186 to 188 °C.

In the case of `CC(=NNC(=N)N)c1sc(-c2ccc(-c3ccccc3)cc2)nc1C`, the melting point is 278 to 280 °C.

For the molecule `CCCCCCCCCCc1sc(NC(=O)Nc2c(C(C)C)cccc2C(C)C)nc1C`, the melting point lay in the range of 101 to 108 °C.

`O=c1[nH]nc(-c2nc3ccccc3o2)[nH]1` returned a melting point of more than 300 °C.

Take `CN(CC(=O)C(Cc1c[nH]c2ccccc12)NC(=O)c1ccccc1)C(=O)N1CCCC1C(=O)O` (stereo not drawn): the melting point was in the range of 102 to 128 °C.

`CCCCNC(=O)NS(=O)(=O)c1ccc(CCNC(=O)N2CCCCC2=O)cc1` came in with a melting point of 156 to 158 °C.

In turn, `COCOc1ccc(C=O)c(Cl)c1OCc1ccccc1` had a melting point of 66 to 67 °C.

`CC(C)(C)Sc1c(CC(C)(C)C(=O)O)n(Cc2ccc(Cl)cc2)c2ccc(OCc3cnccn3)cc12` yielded a melting point of 173 to 175 °C.

Molecule `CCCCn1c(=O)c(NC(=O)Nc2c(C(C)C)cccc2C(C)C)c(-c2cccc(OCCC)c2)c2cccnc21` returned a melting point of 154 to 156 °C.

As for `O=C(O)Cc1ccc(-n2sc3ccccc3c2=O)cc1`, the melting point is 173 to 175 °C.

`CN1C2CCC1C(CO)C(c1ccc(I)cc1)C2` (stereo not drawn) yielded a melting point of 90 to 92 °C.

`CC(C)(C)OC(=O)c1ccc(CBr)cc1` gave a melting point of 53.4 °C.
